Reference: patent US9539223B2, “Methods for treating bacterial infections” (Neoculi Pty Ltd., priority 2013, dated 2017)
Converted amounts (≈) assume the structure as drawn. “And” between values parts separate entries of the source, which are not always exact repeats. Equal values may be shown once.

Experiments:
[1] = tested on: vancomycin-resistant Enterococcus spp. (VRE); assay: Minimum inhibitory concentration assay (CLSI), VRE isolates; type: cell-based
Experimental: Minimum inhibitory concentration tests were performed according to CLSI Standards (CLSI 2008). […] The solutions were then serially diluted across the row, leaving 2 columns for positive and negative controls. A bacterial suspension was prepared by adding fresh colonies obtained from an overnight culture on Sheep Blood Agar (SBA) to a 9.1 g/L saline solution. This suspension was adjusted to a concentration of between 4×10^8 and 5×10^8 CFU/mL. Concentration of the suspension was determined by measuring optical density (OD) using a spectrophotometer at a wavelength of 600 nm where the correct concentration was determined to have an optical density of between 1.00 and 1.20. One milliliter of this suspension was added to 9 mL of saline before being added to all wells, excluding the negative control wells, in 10 μL volumes giving a final concentration of between 4×10^5 and 5×10^5 CFU/mL in each well. The tests were then incubated for 24 hours at 37° C. and then assessed both visually and using OD readings from a microplate reader at a wavelength of 600 nm. These tests were performed in duplicate but repeated if discrepancies were observed.
The minimum inhibitory concentration (MIC) was determined to be the lowest concentration of antibiotic that prevented growth of bacteria both visually and using OD readings. […]

S. aureus KC01 and MK01 = assay: MBC test (CLSI), non-MRSA S. aureus isolates
VRE isolates = assay: MBC test (CLSI), VRE isolates; type: cell-based, Enterococcus spp.; set-up: key: M = many bacteria growing on the plate (too many to count)
Experimental: There was an obvious reduction in the number of bacteria with increasing concentration, but growth was present compared with no growth for S. aureus. […] Each MBC test was performed in duplicate.

[2] = tested on: Staphylococcus pseudintermedius; assay: MIC testing (CLSI), S. pseudintermedius isolates; type: cell-based
S. aureus ATCC 49775 = assay: Time-kill assays; type: cell-based, Staphylococcus aureus
Experimental: Bactericidal activity in macrodilution assays was identified as a 3-log10 decrease from the initial inoculum size. Bacteria were cultured overnight at 37° C. on SBA. Colonies were suspended in broth and the turbidity was adjusted to a 0.5 McFarland standard to obtain a bacterial suspension of ˜10^5-CFU/ml. Bacterial suspensions were incubated at 37° C. with shaking. Aliquots were removed at 0-, 1-, 2-, 4-, 8-, 12-, and 24-h after antimicrobial addition, diluted, plated onto SBA and incubated for 48-h at 37° C. for viable count determination. Turbidimetric growth curves for S. aureus were obtained for Microtiter plate assays by monitoring optical density changes using a Bio-Rad Benchmark Plus microplate spectrophotometer at 600 nm. Optical densities were measured at 0-, 1-, 2-, 4-, 8-, 12, and 24-h after antimicrobial addition.

S. pneumoniae strain D39 = assay: Micro-broth dilution time kill studies; type: cell-based, Streptococcus pneumoniae
Experimental: Negative dilution controls were subtracted from the median growth value to obtain a suitable indicator of overall bacterial production. The 96-well tray was incubated at 37° C. in 5% CO2 and read every 2 hrs for the first 12 hrs followed by final reads at 24 and 48 hrs at 600 nm.

S. aureus ATCC 29213 = assay: ATP release assay (CellTiter-Glo); type: cell-based, Staphylococcus aureus; details: at the MIC ([…] μg/ml), 30 min exposure
Excerpt: The CellTiter-Glo Luminescent Cell Viability Assay (Promega) was utilized to measure the leakage of ATP from bacteria. […] The negative control received 2% DMSO, which represented the final DMSO concentration in each assay. […] Results were expressed as ATP concentration released to the medium (μM).

[3] = tested on: Staphylococcus spp. Strain MK1; assay: Checkerboard synergy study, Staphylococcus spp. MK1; type: cell-based
Experimental: Firstly, the MIC of each antibiotic alone was determined in accordance to CLSI standard guidelines.
According to the checkerboard guidelines, Synergy (S) was defined as an FICI<0.5. No effect (NE) was defined as 0.5<FICI<4. Antagonism (A) was defined as a 4<FICI.

E. faecalis USA01 = assay: MBC test (CLSI), non-VRE E. faecalis isolate
[4] = Visual analysis of solubility in diluents and media; type: physicochemical

SMILES: N=C(N/N=C/c1ccc(Cl)cc1)N/N=C/c1ccc(Cl)cc1 [NCL812, 1,2-bis[(E)-(4-chlorophenyl)methylideneamino]guanidine]
- MIC50 [1]: 4 µg/mL (≈ 12 µM)
- MIC90 [1]: 4 µg/mL (≈ 12 µM)
- MBC test: growth on Sheep Blood Agar (S. aureus KC01 and MK01; S. aureus KC01, 2 μg/ml): +
- MBC test: growth on Sheep Blood Agar (S. aureus KC01 and MK01; S. aureus KC01, 4 μg/ml): 0 and +
- MBC test: growth on Sheep Blood Agar (S. aureus KC01 and MK01; S. aureus KC01, 8 μg/ml): 0 and +
- MBC test: growth on Sheep Blood Agar (S. aureus KC01 and MK01; S. aureus KC01, 16 μg/ml): 0
- MBC test: growth on Sheep Blood Agar (S. aureus KC01 and MK01; S. aureus KC01, 32 μg/ml): 0
- MBC test: growth on Sheep Blood Agar (S. aureus KC01 and MK01; S. aureus KC01, 64 μg/ml): 0
- MBC test: growth on Sheep Blood Agar (S. aureus KC01 and MK01; S. aureus KC01, […]): 0
- MBC test: Number of Bacteria Growing after 24 hours per ml of sample (S. aureus KC01 and MK01; S. aureus MK01, 2 μg/ml): 5 CFU/ml
- MBC test: growth on Sheep Blood Agar (S. aureus KC01 and MK01; S. aureus MK01, 2 μg/ml): 0
- MBC test: growth on Sheep Blood Agar (S. aureus KC01 and MK01; S. aureus MK01, 4 μg/ml): 0
- MBC test: growth on Sheep Blood Agar (S. aureus KC01 and MK01; S. aureus MK01, 8 μg/ml): 0
- MBC test: growth on Sheep Blood Agar (S. aureus KC01 and MK01; S. aureus MK01, 16 μg/ml): 0 (N) and 0
- MBC test: growth on Sheep Blood Agar (S. aureus KC01 and MK01; S. aureus MK01, 32 μg/ml): 0 (N) and 0
- MBC test: growth on Sheep Blood Agar (S. aureus KC01 and MK01; S. aureus MK01, 64 μg/ml): 0 (N) and 0
- MBC test: bacteria growing after 24 hours per ml of sample (VRE isolates; VRE 12c, 64 μg/ml): M
- MBC test: bacteria growing after 24 hours per ml of sample (VRE isolates; VRE 12c, […]): M
- MBC test: bacteria growing after 24 hours per ml of sample (VRE isolates; VRE 14t, […]): M
- MBC test: bacteria growing after 24 hours per ml of sample (VRE isolates; VRE 16c(dc), 64 μg/ml): M
- MBC test: bacteria growing after 24 hours per ml of sample (VRE isolates; VRE 16c(dc), […]): M
- MBC test: bacteria growing after 24 hours per ml of sample (VRE isolates; VRE 16c, 64 μg/ml): M
- MBC test: bacteria growing after 24 hours per ml of sample (VRE isolates; VRE 16c, […]): M
- MBC test: bacteria growing after 24 hours per ml of sample (VRE isolates; VRE 19t, […]): M
- MBC test: bacteria growing after 24 hours per ml of sample (VRE isolates; VRE 23c, 64 μg/ml): M
- MBC test: bacteria growing after 24 hours per ml of sample (VRE isolates; VRE 23c, […]): M
- MBC test: bacteria growing after 24 hours per ml of sample (VRE isolates; VRE 25c, 64 μg/ml): M
- MBC test: bacteria growing after 24 hours per ml of sample (VRE isolates; VRE 25c, […]): M
- MBC test: bacteria growing after 24 hours per ml of sample (VRE isolates; VRE 26c(dc), 64 μg/ml): M
- MBC test: bacteria growing after 24 hours per ml of sample (VRE isolates; VRE 26c(dc), […]): M
- MIC50 ([2]; Staphylococcus pseudintermedius, 23 S. pseudintermedius isolates): 2 µg/mL (≈ 5.98 µM)
- susceptibility based on MICs ([2]; all 23 isolates (MSSP and MRSP)): susceptible
- growth in microdilution assay (S. aureus ATCC 49775; 1× and 4× the MIC, up to 24-h): no visible bacterial growth
- remained bactericidal until (S. aureus ATCC 49775; 10-ml macrodilution, 1× and 4× the MIC, after antimicrobial addition): 8 to 12 h
- bacterial regrowth observed at (S. aureus ATCC 49775; after antimicrobial addition): 12 h
- susceptibility of test bacteria after time-kill exposure (S. aureus ATCC 49775; following harvesting, washing and MIC testing): remained susceptible
- effect of choline chloride in the media on growth (S. pneumoniae strain D39; 5% choline chloride, 48 hour, compared to positive and growth controls): no significant difference in growth
- concentrations resulting in no bacterial growth for 48 hrs (S. pneumoniae strain D39; D39): ≥ 16 µg/mL
- sub-inhibitory concentrations (growth similar to unexposed controls over 48 hour) (S. pneumoniae strain D39; D39): ≤ 2 µg/mL
- entered a log phase of growth at (S. pneumoniae strain D39; D39 treated with ≦4 μg/ml NCL812): 6 hrs
- maximal release of ATP (S. aureus ATCC 29213): 0.33 µM
- MIC ([3]; read-out: NCL812 MIC Alone, Staphylococcus spp. Strain MK1): 2 µg/mL
- NCL812 MIC With Antibiotic ([3]; with Penicillin G): 2 µg/mL
- NCL812 MIC With Antibiotic ([3]; with Sulfamethoxazole): 1 µg/mL and 2 µg/mL
- MBC test: Number of Bacteria Growing after 24 hours per ml of sample (E. faecalis USA01; 4 μg/ml): 488 CFU/ml
- MBC test: growth on Sheep Blood Agar (E. faecalis USA01; 4 μg/ml): +
- MBC test: growth on Sheep Blood Agar (E. faecalis USA01; 8 μg/ml): +
- MBC test: growth on Sheep Blood Agar (E. faecalis USA01; 16 μg/ml): +
- MBC test: Number of Bacteria Growing after 24 hours per ml of sample (E. faecalis USA01; 32 μg/ml): 7 CFU/ml
- MBC test: growth on Sheep Blood Agar (E. faecalis USA01; 32 μg/ml): +
- MBC test: Number of Bacteria Growing after 24 hours per ml of sample (E. faecalis USA01; 64 μg/ml): 1 CFU/ml
- MBC test: growth on Sheep Blood Agar (E. faecalis USA01; 64 μg/ml): +
- MBC test: growth on Sheep Blood Agar (E. faecalis USA01; […]): +
- solubility ([4]; DMSO): soluble
- appearance when dissolved ([4]; cation-adjusted Mueller-Hinton II broth (CAMHB)): cloudy solution
- visual solubility ([4]; diluent CAMHB): Turbid
- visual solubility ([4]; diluent DMSO): Transparent
- visual solubility ([4]; diluent PBS): Precipitate
- visual solubility ([4]; media 4% LHB:CAMHB): Turbid
- visual solubility ([4]; media 10% horse serum-supplemented broth): Precipitate
